# The NIST ThermoML archive (doi:10.1016/j.jct.2012.05.002)
# Numbers after ± are expanded uncertainties.
# Assay: Boiling temperature at pressure P
# Settings: 101.3 kPa; Liquid; Closed cell (Static) method
row,SMILES,Boiling temperature at pressure P [°C]
1,COC(=O)OC [dimethyl carbonate],64.69 ± 0.11
2,CO [methanol],90.26 ± 0.11
